Test [1] can be described thus: viability of uninfected HEp-2 cells – cell-based, HTS, cytotoxicity control for RSV inhibitor project, dose response (AID 2410). Type of test: functional. The note with it: human respiratory syncytial virus.
In test [2] the target is T1, High affinity choline transporter 1 (Homo sapiens, UniProt Q9GZV3).
T1 sequence (Q9GZV3 whole entry): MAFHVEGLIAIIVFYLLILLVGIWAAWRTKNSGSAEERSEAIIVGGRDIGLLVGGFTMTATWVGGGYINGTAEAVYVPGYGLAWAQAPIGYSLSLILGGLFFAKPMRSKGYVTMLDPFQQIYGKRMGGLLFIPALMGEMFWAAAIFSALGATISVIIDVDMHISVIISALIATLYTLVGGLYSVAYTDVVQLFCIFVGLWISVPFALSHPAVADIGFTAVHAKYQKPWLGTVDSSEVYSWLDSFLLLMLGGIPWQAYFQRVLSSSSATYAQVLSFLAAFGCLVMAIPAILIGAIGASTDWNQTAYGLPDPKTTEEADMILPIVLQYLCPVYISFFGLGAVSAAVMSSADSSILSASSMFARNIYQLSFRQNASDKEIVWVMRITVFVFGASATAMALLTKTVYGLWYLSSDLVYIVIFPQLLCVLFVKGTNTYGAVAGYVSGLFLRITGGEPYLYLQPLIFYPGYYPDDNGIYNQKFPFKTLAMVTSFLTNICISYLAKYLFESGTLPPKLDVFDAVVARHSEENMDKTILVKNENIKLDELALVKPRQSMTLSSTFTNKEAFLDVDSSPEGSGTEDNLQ
Put plainly: human choline transporter blockers, potency – cell-based, 5-point CRC, membrane potential dye, dose response (AID 504840). It is filed as functional.

Test [3] addresses T1, High affinity choline transporter 1. Put plainly: human choline transporter blockers, potency – cell-based, 10-point CRC, membrane potential dye, dose response (AID 588401).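 Further: membrane potential dye fluorescence of choline-evoked depolarization via CHT.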 Type of test: functional.
The next test has as its target T2, Insulin-degrading enzyme (Homo sapiens, UniProt P14735).
T2 sequence (P14735 whole entry): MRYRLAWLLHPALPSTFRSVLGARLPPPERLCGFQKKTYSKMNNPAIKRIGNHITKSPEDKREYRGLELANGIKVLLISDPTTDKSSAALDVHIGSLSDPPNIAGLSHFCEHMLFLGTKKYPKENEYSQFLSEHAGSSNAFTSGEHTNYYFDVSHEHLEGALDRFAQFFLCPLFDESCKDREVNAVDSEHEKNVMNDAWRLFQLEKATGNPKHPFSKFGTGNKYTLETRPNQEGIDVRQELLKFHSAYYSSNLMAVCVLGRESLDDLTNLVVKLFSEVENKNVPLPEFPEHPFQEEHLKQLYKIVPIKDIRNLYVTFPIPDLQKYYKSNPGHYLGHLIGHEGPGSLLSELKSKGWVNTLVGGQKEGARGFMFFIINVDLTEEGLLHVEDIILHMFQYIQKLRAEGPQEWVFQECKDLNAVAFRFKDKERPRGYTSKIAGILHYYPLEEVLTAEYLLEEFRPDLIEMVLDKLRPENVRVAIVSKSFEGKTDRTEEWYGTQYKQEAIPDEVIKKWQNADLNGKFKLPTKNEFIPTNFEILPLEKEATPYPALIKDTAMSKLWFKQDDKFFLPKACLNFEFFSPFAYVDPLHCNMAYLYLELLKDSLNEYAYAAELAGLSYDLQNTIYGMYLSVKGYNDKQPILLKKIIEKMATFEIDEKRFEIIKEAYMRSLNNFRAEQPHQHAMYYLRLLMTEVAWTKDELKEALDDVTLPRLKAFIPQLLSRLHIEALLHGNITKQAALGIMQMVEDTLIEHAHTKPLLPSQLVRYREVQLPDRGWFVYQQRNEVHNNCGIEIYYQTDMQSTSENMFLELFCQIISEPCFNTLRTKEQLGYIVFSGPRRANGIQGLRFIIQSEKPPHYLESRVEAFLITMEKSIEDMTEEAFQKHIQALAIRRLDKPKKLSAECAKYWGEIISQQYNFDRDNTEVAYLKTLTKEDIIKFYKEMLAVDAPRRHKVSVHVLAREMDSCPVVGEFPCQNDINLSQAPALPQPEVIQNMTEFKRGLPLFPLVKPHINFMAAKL
Put plainly: Dose Response: Fluorescence polarization-based cell-based high throughput dose response assay for inhibitors of insulin-degrading enzyme (IDE). [Related pubchem assays: 434962 (Primary screen (IDE inhibitors in singlicate)), 449730 (Counterscreen (Cytotoxicity in triplicate)), 435028 (Confirmation (IDE inhibitors in triplicate)), 434984 (Summary …. It is filed as functional.

Test [4] in a line: Counterscreen for IDE inhibitors: Luminescence-based cell-based high throughput dose response assay to identify compounds that are cytotoxic to HEK cells. [Related pubchem assays: 434962 (Primary screen (IDE inhibitors in singlicate)), 449730 (Counterscreen (Cytotoxicity in triplicate)), 435028 (Confirmation (IDE inhibitors in triplicate)) …. Type of test: functional. The note with it: HEK293.

For test [5], the system named is Streptococcus. As to the kind of experiment: GAS UMAA2166 growth inhibition – luminescence, BacTiterGlo, counter-screen for streptokinase expression inhibitor project, dose response (AID 1915).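 Further: potency for reduction of bacterial viability or growth.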 Type of test: functional, organism-based. The note with it: read-out: EC50.
Test [6] is described as follows: Luminescence Cell-Based Dose Retest to Confirm Inhibitors of Cancer Stem Cells. [Related pubchem assays (depositor defined):AID2717, AID2721]. It is filed as functional. The note with it: Homo sapiens.
Test [7] in a line: non-specific 3'UTR reporter inhibition in Clone20-Shn3RL – cell-based, Renilla luciferase, cherry-picked, counter-screen for Shn3 inhibitor project, dose response (AID 624133). It is filed as functional.
The test system of test [8] is Streptococcus sp. 'group A'. Put plainly: Streptococcus pyogenes SK(-)GAS viability under kanamycin – luminescence, BacTiterGlo, confirmation, counter-screen for streptokinase expression inhibitor project, dose response (AID 1900). It is filed as functional, organism-based.
Test [9] in a line: reduction of Shn3 3'UTR-driven luciferase in osteoblasts – cell-based, Clone20 osteoblasts, firefly luciferase, cherry-picked, dose response (AID 624132).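 Further: firefly luciferase luminescence from reporter carrying the Shn3 3'UTR in osteoblasts.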 Type of test: functional.
Another test deals with INS1. As to the kind of experiment: INS-1E survival protection against cytokine death – cell-based, luminescence, retest, dose response (AID 449756).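 Further: cell death triggered by IL-1 beta plus TNF-alpha plus IFN-gamma mixture; protective hits raise ATP signal compared with cytokine alone wells.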 Type of test: functional. The note with it: Rattus norvegicus.
Test [10] concerns Streptococcus. As to the kind of experiment: Luminescence Microorganism-Based Dose Response Follow up to Identify Compounds Cytotoxic to Streptococcus. [Related pubchem assays: 1677 (Project Summary), 1915, 1914, 1902 (Retest at Dose), 1900 (Counter Screen), 1662 (Primary HTS)]. It is filed as functional, organism-based.
The target in a further test is T3, Streptokinase A (Streptococcus pyogenes serotype M1, UniProt P10520).
T3 sequence (P10520 whole entry): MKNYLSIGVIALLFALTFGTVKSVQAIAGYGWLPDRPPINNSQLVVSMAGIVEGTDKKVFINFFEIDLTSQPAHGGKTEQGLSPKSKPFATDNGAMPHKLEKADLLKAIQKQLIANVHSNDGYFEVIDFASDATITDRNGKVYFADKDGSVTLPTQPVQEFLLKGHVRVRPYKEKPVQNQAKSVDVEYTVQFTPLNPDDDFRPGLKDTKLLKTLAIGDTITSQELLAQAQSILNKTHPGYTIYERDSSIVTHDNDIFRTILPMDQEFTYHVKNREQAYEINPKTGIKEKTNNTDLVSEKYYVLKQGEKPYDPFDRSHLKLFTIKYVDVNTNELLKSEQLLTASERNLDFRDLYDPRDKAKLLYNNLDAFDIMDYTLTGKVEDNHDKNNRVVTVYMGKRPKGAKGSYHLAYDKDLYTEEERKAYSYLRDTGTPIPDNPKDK
Put plainly: viability-normalized secreted streptokinase activity reduction – plasminogen activation absorbance, OD405, dose response (AID 1914).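 Further: secreted streptokinase activity via plasminogen activation per viability signal from cell pellet.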 It is filed as functional, Streptococcus pyogenes M1 GAS.

Test [11] has as its target Melanin-concentrating hormone receptor 1 (Homo sapiens, UniProt Q99705). As to the kind of experiment: Fluorescence-based counterscreen for antagonists of the G-protein coupled receptor 7 (GPR7): cell-based high throughput dose response assay to identify antagonists of the melanin-concentrating hormone receptor 1 (MCHR1). Type of test: functional.
Test [12] addresses T4, Neuropeptides B/W receptor type 1 (Homo sapiens, UniProt P48145).
T4 sequence (P48145 whole entry): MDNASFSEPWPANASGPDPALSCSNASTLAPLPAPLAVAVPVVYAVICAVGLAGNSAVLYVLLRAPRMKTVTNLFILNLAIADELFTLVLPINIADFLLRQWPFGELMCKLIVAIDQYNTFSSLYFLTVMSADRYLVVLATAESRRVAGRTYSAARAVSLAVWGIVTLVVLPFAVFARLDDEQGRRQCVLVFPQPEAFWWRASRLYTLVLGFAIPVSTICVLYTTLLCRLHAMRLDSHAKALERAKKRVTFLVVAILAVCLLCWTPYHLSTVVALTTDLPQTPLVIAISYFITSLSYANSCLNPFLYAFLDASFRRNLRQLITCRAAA
As to the kind of experiment: Fluorescence-based dose response cell-based high throughput screening assay to identify antagonists of the G-protein coupled receptor 7 (GPR7). [Related pubchem assays: 1952 (Screening assay (GPR7 antagonists).), 1880 (Summary AID.)]. It is filed as functional.

Test [13] addresses Peroxisome proliferator-activated receptor gamma/Nuclear receptor corepressor 2 (Homo sapiens, UniProt P37231+Q9Y618). It is filed as functional.
The target in test [14] is Photoreceptor-specific nuclear receptor (Homo sapiens, UniProt Q9Y5X4). Type of test: functional.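 Further: potency for compounds that break the NR2E3 corepressor complex and count as activators.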

Active and inactive are the calls of the source.

Chain of Melanin-concentrating hormone receptor 1 (Q99705 whole entry): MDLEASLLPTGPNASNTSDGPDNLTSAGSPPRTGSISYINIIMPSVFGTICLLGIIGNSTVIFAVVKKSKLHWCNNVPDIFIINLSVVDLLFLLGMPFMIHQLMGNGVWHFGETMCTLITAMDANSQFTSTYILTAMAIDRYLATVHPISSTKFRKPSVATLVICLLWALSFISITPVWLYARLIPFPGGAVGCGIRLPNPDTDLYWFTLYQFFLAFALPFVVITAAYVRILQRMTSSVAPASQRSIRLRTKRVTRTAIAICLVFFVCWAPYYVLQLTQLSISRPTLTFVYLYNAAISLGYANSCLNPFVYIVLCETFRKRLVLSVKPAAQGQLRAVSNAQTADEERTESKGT
Chain of Peroxisome proliferator-activated receptor gamma/Nuclear receptor corepressor 2 (P37231 whole entry): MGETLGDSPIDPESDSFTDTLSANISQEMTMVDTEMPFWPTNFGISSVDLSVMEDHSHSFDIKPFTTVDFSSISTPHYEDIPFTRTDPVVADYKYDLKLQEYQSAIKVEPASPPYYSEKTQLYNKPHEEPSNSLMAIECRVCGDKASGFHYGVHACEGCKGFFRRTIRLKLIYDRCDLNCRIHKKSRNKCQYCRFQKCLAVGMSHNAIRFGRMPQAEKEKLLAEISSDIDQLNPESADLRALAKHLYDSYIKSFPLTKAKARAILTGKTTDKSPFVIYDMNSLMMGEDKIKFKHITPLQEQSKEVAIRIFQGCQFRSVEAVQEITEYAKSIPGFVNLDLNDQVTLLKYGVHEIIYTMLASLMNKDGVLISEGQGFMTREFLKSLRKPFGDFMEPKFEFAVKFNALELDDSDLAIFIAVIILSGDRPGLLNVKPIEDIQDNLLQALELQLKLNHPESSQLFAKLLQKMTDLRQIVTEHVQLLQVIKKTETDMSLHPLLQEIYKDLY
Chain of Peroxisome proliferator-activated receptor gamma/Nuclear receptor corepressor 2 (Q9Y618 whole entry): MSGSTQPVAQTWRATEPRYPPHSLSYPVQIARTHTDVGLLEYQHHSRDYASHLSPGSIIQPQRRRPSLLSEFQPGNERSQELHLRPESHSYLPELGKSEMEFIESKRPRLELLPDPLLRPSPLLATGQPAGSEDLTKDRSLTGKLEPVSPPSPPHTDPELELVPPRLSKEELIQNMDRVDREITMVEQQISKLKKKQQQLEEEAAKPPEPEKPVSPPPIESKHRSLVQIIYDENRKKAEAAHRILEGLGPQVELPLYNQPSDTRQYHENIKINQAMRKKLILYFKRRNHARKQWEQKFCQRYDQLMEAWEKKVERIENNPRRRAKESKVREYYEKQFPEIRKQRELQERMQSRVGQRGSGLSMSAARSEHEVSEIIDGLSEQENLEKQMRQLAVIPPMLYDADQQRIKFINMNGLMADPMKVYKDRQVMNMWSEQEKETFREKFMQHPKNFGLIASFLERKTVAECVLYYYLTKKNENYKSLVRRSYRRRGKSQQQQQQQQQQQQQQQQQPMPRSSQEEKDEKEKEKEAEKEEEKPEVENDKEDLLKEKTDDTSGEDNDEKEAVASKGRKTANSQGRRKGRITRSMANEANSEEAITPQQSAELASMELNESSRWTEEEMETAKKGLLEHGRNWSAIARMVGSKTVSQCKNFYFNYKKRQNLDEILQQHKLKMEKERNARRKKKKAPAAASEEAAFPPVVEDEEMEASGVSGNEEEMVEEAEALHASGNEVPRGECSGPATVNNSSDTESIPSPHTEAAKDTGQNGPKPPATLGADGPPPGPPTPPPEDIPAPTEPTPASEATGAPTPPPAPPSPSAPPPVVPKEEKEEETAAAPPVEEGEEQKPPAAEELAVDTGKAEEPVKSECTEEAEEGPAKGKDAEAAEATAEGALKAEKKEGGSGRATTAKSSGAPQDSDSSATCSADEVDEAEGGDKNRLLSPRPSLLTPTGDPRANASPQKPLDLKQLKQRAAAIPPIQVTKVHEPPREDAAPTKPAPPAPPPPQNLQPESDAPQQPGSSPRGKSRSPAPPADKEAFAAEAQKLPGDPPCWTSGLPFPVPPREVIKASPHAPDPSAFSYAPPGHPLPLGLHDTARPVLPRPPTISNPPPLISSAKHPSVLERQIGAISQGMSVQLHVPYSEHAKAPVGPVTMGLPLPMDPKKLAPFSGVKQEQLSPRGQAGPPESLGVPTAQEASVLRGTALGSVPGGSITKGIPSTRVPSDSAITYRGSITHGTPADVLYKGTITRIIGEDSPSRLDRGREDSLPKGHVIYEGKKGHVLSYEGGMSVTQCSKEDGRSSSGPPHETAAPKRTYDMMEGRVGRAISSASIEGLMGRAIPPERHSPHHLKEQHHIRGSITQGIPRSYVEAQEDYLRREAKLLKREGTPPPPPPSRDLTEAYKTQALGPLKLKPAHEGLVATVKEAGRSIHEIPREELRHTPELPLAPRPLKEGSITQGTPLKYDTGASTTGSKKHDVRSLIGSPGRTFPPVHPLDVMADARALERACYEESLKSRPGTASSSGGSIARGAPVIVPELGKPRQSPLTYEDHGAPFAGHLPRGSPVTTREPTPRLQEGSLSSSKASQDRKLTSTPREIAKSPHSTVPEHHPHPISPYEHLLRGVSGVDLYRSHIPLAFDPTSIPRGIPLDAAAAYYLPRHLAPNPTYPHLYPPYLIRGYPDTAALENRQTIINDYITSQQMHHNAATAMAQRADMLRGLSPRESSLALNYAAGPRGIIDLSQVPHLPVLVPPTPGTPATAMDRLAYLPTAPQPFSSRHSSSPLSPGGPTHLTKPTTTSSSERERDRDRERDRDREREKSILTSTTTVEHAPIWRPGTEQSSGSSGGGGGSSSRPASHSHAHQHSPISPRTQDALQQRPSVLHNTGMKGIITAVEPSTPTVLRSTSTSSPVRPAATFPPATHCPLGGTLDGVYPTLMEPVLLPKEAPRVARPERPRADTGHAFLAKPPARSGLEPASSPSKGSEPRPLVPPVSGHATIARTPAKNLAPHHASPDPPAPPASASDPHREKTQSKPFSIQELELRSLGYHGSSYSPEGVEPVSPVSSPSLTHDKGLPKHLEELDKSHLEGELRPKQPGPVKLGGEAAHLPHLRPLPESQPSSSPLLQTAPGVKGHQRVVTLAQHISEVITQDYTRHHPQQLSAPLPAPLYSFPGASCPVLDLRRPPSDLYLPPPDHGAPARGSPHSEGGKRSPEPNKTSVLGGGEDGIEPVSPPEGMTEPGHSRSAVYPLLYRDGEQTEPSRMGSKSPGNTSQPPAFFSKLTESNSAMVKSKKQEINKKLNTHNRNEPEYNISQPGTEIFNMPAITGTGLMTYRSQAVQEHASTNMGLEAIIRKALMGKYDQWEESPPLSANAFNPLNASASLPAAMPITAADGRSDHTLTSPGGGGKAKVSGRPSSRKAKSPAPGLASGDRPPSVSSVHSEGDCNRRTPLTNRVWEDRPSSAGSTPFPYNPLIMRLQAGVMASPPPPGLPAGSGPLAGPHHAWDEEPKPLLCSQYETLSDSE
Chain of Photoreceptor-specific nuclear receptor (Q9Y5X4 whole entry): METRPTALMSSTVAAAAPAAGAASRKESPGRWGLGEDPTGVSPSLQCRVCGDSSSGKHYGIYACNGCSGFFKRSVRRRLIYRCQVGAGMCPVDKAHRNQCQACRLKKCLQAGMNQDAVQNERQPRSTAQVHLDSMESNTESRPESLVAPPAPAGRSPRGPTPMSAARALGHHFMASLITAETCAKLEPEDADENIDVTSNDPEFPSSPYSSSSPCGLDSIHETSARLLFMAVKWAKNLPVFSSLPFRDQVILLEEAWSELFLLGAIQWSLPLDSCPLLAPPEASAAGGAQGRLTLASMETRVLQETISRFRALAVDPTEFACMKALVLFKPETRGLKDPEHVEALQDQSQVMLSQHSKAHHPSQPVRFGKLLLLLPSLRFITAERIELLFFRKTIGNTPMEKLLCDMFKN

As to `COC(=O)C1=C(C)N(Cc2ccco2)C(=O)N[C@H]1c1ccccc1`, the 50% cytotoxic concentration (CC50) in test [1] is > 50 µM (active). Besides, the concentration for half-maximal inhibition (IC50) in “cells” was 21.8 µM (active).

Regarding `CC(C)(C)NC(=O)NC(=O)CN1CCN(c2cccc(Cl)c2)CC1`, the half-maximal inhibitory concentration (IC50) is 8.64 µM (active) in test [2], 3.16 µM (active) in test [3], > 55.9 µM (not active) at Insulin-degrading enzyme and 19.3 µM (not active) in [4].

For `COC(=O)c1ccccc1NC(=O)c1nc(S(=O)(=O)Cc2ccccc2)ncc1Cl`, the EC50 in the test on Streptococcus [5] is > 150 µM (not active); in [8], > 50 µM (not active); with Streptococcus [10], > 56 µM (not active); on Streptokinase A, 3.08 µM (active). Moreover, the AC50 in [6] is 1.84 µM (active); in test [7] it was 8.03 µM (active); in [9], 0.428 µM (active); in the test with INS1, 6.88 µM (active).

On to `N=c1c(C(=O)NCCc2ccccc2)cc2c(=O)n3ccccc3nc2n1CCCN1CCOCC1`, for which the IC50 in test [11] and in test [12] was > 43.8 µM (not active) in each case.

Regarding `O=P(Cc1cc(Br)cc(Br)c1OCCO)(c1ccccc1)c1ccccc1`, the IC50 is 9.96 µM (active) in [11] and > 43.8 µM (not active) in test [12].

On to `CCOc1cccc(C2C(C(=O)c3ccc(C)o3)=C(O)C(=O)N2CCCn2ccnc2)c1` (stereo not given), for which the IC50 in [13] was 16.8 µM (not active); in [14], > 39.8 µM (not active).
